Measurements: PubChem BioAssay (NCI)
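Interpolation was linear, between the two tested concentrations surrounding the appropriate level; five concentrations were tested over 48 hours in 96-well plates. Here, GI50 denotes the concentration required for 50% inhibition of growth. TGI: total growth inhibition.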

Legend:
Test in all cases: NCI tumour cell line growth inhibition, 48 h
OVCAR-8 ovarian = test system: OVCAR-8 ovarian
COLO 205 colon = test system: COLO 205 colon
NCI-H23 lung = test system: NCI-H23 lung
UACC-257 melanoma = test system: UACC-257 melanoma
SF-539 CNS = test system: SF-539 CNS
SNB-19 CNS = test system: SNB-19 CNS
MALME-3M melanoma = test system: MALME-3M melanoma
UACC-62 melanoma = test system: UACC-62 melanoma
MDA-MB-231 breast = test system: MDA-MB-231 breast
HS 578T breast = test system: HS 578T breast

O=[N+]([O-])c1ccc2c(c1)[O][Sn][O]2
GI50 (OVCAR-8 ovarian): 65.7 µg/mL | TGI (OVCAR-8 ovarian): > 150 µg/mL | GI50 (COLO 205 colon): 62.5 µg/mL | TGI (COLO 205 colon): > 150 µg/mL | GI50 (NCI-H23 lung): 15.3 µg/mL | TGI (NCI-H23 lung): 143 µg/mL | GI50 (UACC-257 melanoma): 40.5 µg/mL | TGI (UACC-257 melanoma): > 150 µg/mL | GI50 (SF-539 CNS): 50.1 µg/mL | TGI (SF-539 CNS): > 150 µg/mL | GI50 (SNB-19 CNS): 55.2 µg/mL | TGI (SNB-19 CNS): > 150 µg/mL | GI50 (MALME-3M melanoma): 149 µg/mL | TGI (MALME-3M melanoma): > 150 µg/mL | GI50 (UACC-62 melanoma): 8.32 µg/mL | TGI (UACC-62 melanoma): > 150 µg/mL

O=c1[nH]c(=O)n(C2OC3COC2C3O)cc1F (stereo not given)
TGI (OVCAR-8 ovarian): > 100 µM | TGI (COLO 205 colon): > 100 µM | TGI (NCI-H23 lung): > 100 µM | TGI (UACC-257 melanoma): > 100 µM | TGI (SNB-19 CNS): > 100 µM | TGI (MALME-3M melanoma): > 100 µM

CCOC(=O)COS(=O)(=O)C(F)(F)F
TGI (OVCAR-8 ovarian): > 100 µM | TGI (COLO 205 colon): > 100 µM | TGI (NCI-H23 lung): > 100 µM | TGI (UACC-257 melanoma): > 100 µM | TGI (SF-539 CNS): > 100 µM | TGI (SNB-19 CNS): > 100 µM | TGI (MALME-3M melanoma): > 100 µM | TGI (UACC-62 melanoma): > 100 µM

C1=CC=C2NCCOCCNC3=CC=CC=CC3=NCCOCCN=C2C=C1
TGI (OVCAR-8 ovarian): > 100 µM | TGI (COLO 205 colon): > 100 µM | TGI (NCI-H23 lung): > 100 µM | TGI (UACC-257 melanoma): 44.6 µM | TGI (SNB-19 CNS): > 100 µM | TGI (MALME-3M melanoma): 76 µM | TGI (UACC-62 melanoma): > 100 µM

NC(=O)c1ccc(C2C3=C(CCCC3=O)OC3=C2C(=O)c2ccccc2C3=O)cc1 (stereo not given)
GI50 (COLO 205 colon): 0.351 µM | TGI (COLO 205 colon): 1.41 µM | GI50 (MDA-MB-231 breast): 0.323 µM | TGI (MDA-MB-231 breast): 1.54 µM | GI50 (NCI-H23 lung): 0.202 µM | TGI (NCI-H23 lung): 1.14 µM | GI50 (UACC-257 melanoma): 0.232 µM | TGI (UACC-257 melanoma): 1.26 µM | GI50 (SF-539 CNS): 0.307 µM | TGI (SF-539 CNS): 1.03 µM | GI50 (SNB-19 CNS): 1.38 µM | TGI (SNB-19 CNS): 2.87 µM | GI50 (HS 578T breast): 1.13 µM | TGI (HS 578T breast): 5.49 µM | GI50 (MALME-3M melanoma): 0.332 µM | TGI (MALME-3M melanoma): 0.986 µM | GI50 (UACC-62 melanoma): 0.217 µM | TGI (UACC-62 melanoma): 0.52 µM

Cc1nn(-c2ccccc2)c(-c2ccccc2[N+](=O)[O-])c1CC#N
TGI (OVCAR-8 ovarian): > 100 µM | TGI (COLO 205 colon): > 100 µM | TGI (NCI-H23 lung): > 100 µM | TGI (UACC-257 melanoma): > 100 µM | TGI (SF-539 CNS): > 100 µM | TGI (SNB-19 CNS): > 100 µM | TGI (MALME-3M melanoma): > 100 µM | TGI (UACC-62 melanoma): > 100 µM

C[N+]1(C)C/C(=C\c2ccncc2)C(=O)/C(=C/c2ccncc2)C1
TGI (OVCAR-8 ovarian): > 100 µM | TGI (COLO 205 colon): > 100 µM | TGI (UACC-257 melanoma): > 100 µM | TGI (SF-539 CNS): > 100 µM | TGI (SNB-19 CNS): > 100 µM | TGI (MALME-3M melanoma): > 100 µM | TGI (UACC-62 melanoma): > 100 µM

Cc1ccc2c(c1)C(c1cccc3ccccc13)OC2=O (stereo not given)
TGI (OVCAR-8 ovarian): > 100 µM | TGI (COLO 205 colon): > 100 µM | TGI (NCI-H23 lung): > 100 µM | TGI (UACC-257 melanoma): > 100 µM | TGI (SNB-19 CNS): > 100 µM | TGI (MALME-3M melanoma): > 100 µM | TGI (UACC-62 melanoma): > 100 µM

CC(C)Oc1cc(O)c2c(c1)OCC=C2CCC(=O)O
TGI (OVCAR-8 ovarian): > 100 µM | TGI (COLO 205 colon): 31.2 µM | TGI (MDA-MB-231 breast): > 100 µM | TGI (NCI-H23 lung): > 100 µM | TGI (UACC-257 melanoma): 61.4 µM | TGI (SNB-19 CNS): > 100 µM | TGI (HS 578T breast): > 100 µM | TGI (UACC-62 melanoma): > 100 µM

COc1ccc(CN2c3ccccc3CCc3ccccc32)cc1F
GI50 (OVCAR-8 ovarian): 0.88 µM | TGI (OVCAR-8 ovarian): > 100 µM | GI50 (COLO 205 colon): 0.335 µM | TGI (COLO 205 colon): 1.39 µM | GI50 (MDA-MB-231 breast): 1.35 µM | TGI (MDA-MB-231 breast): 79.7 µM | GI50 (NCI-H23 lung): 0.672 µM | TGI (NCI-H23 lung): > 100 µM | GI50 (UACC-257 melanoma): > 100 µM | TGI (UACC-257 melanoma): > 100 µM | GI50 (SF-539 CNS): 0.287 µM | TGI (SF-539 CNS): 0.958 µM | GI50 (SNB-19 CNS): 0.697 µM | TGI (SNB-19 CNS): > 100 µM | GI50 (HS 578T breast): 0.487 µM | TGI (HS 578T breast): > 100 µM | GI50 (UACC-62 melanoma): 0.804 µM | TGI (UACC-62 melanoma): > 100 µM

O=[N+]([O-])c1nccn1COCCBr
TGI (OVCAR-8 ovarian): > 100 µM | TGI (NCI-H23 lung): > 100 µM | TGI (UACC-257 melanoma): > 100 µM | TGI (SF-539 CNS): > 100 µM | TGI (SNB-19 CNS): > 100 µM | TGI (MALME-3M melanoma): > 100 µM | TGI (UACC-62 melanoma): > 100 µM
